Data as given in publication PMC5011342, “A high throughput drug screening assay to identify compounds that promote oligodendrocyte differentiation using acutely dissociated and purified oligodendrocyte precursor cells” (BMC Research Notes, 2016).
Read-outs that look alike come from different tables or passages of the source.

Experiments:
[1] = test system: acutely dissociated and purified rat OPCs; test: Acute OL differentiation assay (MBP expression/cell, immunofluorescent image quantification); assay type: cell-based; settings: for EC50: average EC50 for induction of OL differentiation from independent biological replicates, eight concentrations; for hit in OL differentiation assay, MRF-TMC: ● = confirmed hit in this paper's assay; for promotion of OL differentiation (in words): MBP expression versus 0.1 % DMSO negative control
Method in brief: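 Oligodendrocyte precursor cells were enriched from P6-P7 Sprague–Dawley rat brains by immunopanning (RAN-2 and GalC depletion, O4 selection), plated at 5000 cells/well in serum-free, mitogen-free differentiation media on PDL/laminin 96-well view plates, centrifuged at 200×g, and pre-incubated 1–2 h before test compounds were added in quadruplicate. On DIV4, cells were fixed, stained for MBP and DAPI, imaged automatically, and MBP expression per cell was quantified.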

Mouse OPCs = settings: ● = hit reported; cited from earlier work
expanded OPCs = test: cells; settings: for viability at 0.1 µM / viability at 1 µM / viability at 10 µM: Rattus norvegicus, 72 h; for 0.1 µM (% DMSO) / 1 µM (% DMSO) / 10 µM (% DMSO): alamarBlue viability of expanded OPCs, relative to DMSO control; for 0.1 µM (% DMSO): compound at 0.1 µM; for 1 µM (% DMSO): compound at 1 µM; for 10 µM (% DMSO): compound at 10 µM
Method in brief: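 Expanded OPCs seeded at 10,000 cells/well in differentiation media, then exposed to NCC library compounds at 10, 1 and 0.1 µM (quadruplicate, 0.1% DMSO) for three days. Viability read as alamarBlue fluorescence (560/590 nm) after 4 h at 37 °C; tunicamycin 5 ng/ml served as toxicity control.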

Rat OPCs = settings: ● = hit reported; cited from earlier work
[2] = in vivo models; cited from earlier work
Rat OPCs, Mouse OPCs = settings: ● = hit reported; cited from earlier work
[3] = parameters: method as in Trial NCT00039988; settings: add-on therapy to capaxone (glatiramir acetate), RRMS patients; ref Trial NCT00039988; cited from earlier work
[4] = clinical trial of MS; cited from earlier work
transplanted hOPCs = test system: transplanted hOPCs; parameters: method as in PMID 25716865; settings: hypomyelinated shiverer/rag2 brain; cited from earlier work
[5] = Rattus norvegicus, 2 uM test compound, relative to quetiapine, sheet "All OLga data", read-out: OL differentiation, 2 uM (% Quet)
[6] = Rattus norvegicus, 10 uM test compound, relative to quetiapine, sheet "All OLga data", read-out: OL differentiation, 10 uM (% Quet)
[7] = read-out: 0.1 µM (% DMSO), alamarBlue viability of expanded OPCs, compound at 0.1 µM, sheet All Tox data
[8] = read-out: 1 µM (% DMSO), alamarBlue viability of expanded OPCs, compound at 1 µM, sheet All Tox data
[9] = read-out: 10 µM (% DMSO), alamarBlue viability of expanded OPCs, compound at 10 µM, sheet All Tox data
[10] = Rattus norvegicus, test compound at 2 uM, NCC library screen, sheet "All OLga data", relative to quetiapine, read-out: 2 uM (% Quet)
[11] = read-out: 0.1 µM (% DMSO), alamarBlue viability, NCC library compound at 0.1 µM, sheet "All Tox data"
[12] = read-out: 1 µM (% DMSO), alamarBlue viability, NCC library compound at 1 µM, sheet "All Tox data"
[13] = read-out: 10 µM (% DMSO), alamarBlue viability, NCC library compound at 10 µM, sheet "All Tox data"
[14] = Rattus norvegicus, test compound at 0.4 uM, NCC library screen, sheet "All OLga data", relative to quetiapine, read-out: 0.4 uM (% Quet)

Compound: O[C@@H]1CCCC[C@H]1N1CCC(c2ccccc2)CC1 (racemic) [Vesamicol, reference compound]
- activation at 2 µM [1, 5]: 80.7%
- activation at 10 µM [1, 6]: 151%
- EC50 ([1]; Rattus norvegicus): 1400 nM
- hit in OL differentiation assay, MRF-TMC [1]: ●
- hit in OL differentiation assay, Najm (Mouse OPCs): ●
- viability at 0.1 µM (expanded OPCs; [7]): 94.3%
- viability at 1 µM (expanded OPCs; [8]): 120%
- viability at 10 µM (expanded OPCs; [9]): 146%

Compound: CN1[C@@H]2CC[C@H]1C[C@@H](OC(c1ccccc1)c1ccccc1)C2 [Benztropine]
- hit in OL differentiation assay, MRF-TMC [1]: ●
- hit in OL differentiation assay, Deshmukh (Rat OPCs): ●
- stimulating remyelination [2]: efficacy in stimulating remyelination
- hit in OL differentiation assay, Mei (Rat OPCs, Mouse OPCs): ●
- hit in OL differentiation assay, Najm (Mouse OPCs): ●

Compound: CN1CCC[C@@H]1CCO[C@](C)(c1ccccc1)c1ccc(Cl)cc1 [Clemastine]
- promotion of OL differentiation (in words) [1]: could promote OL differentiation in our assay similar to benztropine
- hit in OL differentiation assay, MRF-TMC [1]: ●
- hit in OL differentiation assay, Deshmukh (Rat OPCs): ●
- stimulating remyelination [2]: efficacy in stimulating remyelination
- hit in OL differentiation assay, Mei (Rat OPCs, Mouse OPCs): ●

Compound: CC(C)[N+]1(C)[C@@H]2CC[C@H]1C[C@@H](OC(=O)C(CO)c1ccccc1)C2 (stereo partly drawn) [Ipatropium, reference compound]
- activation at 2 µM [1, 10]: 21.2%
- activation at 10 µM ([1]; Rattus norvegicus, test compound at 10 uM, NCC library screen, sheet "All OLga data", relative to quetiapine, read-out: 10 uM (% Quet)): 38.6%
- EC50 ([1]; Rattus norvegicus): 8500 nM
- hit in OL differentiation assay, MRF-TMC [1]: ●
- hit in OL differentiation assay, Deshmukh (Rat OPCs): ●
- hit in OL differentiation assay, Mei (Rat OPCs, Mouse OPCs): ●
- viability at 0.1 µM (expanded OPCs; [11]): 92.6%
- viability at 1 µM (expanded OPCs; [12]): 101%
- viability at 10 µM (expanded OPCs; [13]): 123%

Compound: CCN(CC)CC#CCOC(=O)C(O)(c1ccccc1)C1CCCCC1 (stereo not drawn) [Oxybutynin, reference compound]
- activation at 2 µM [1, 10]: 91.6%
- hit in OL differentiation assay, MRF-TMC [1]: ●
- hit in OL differentiation assay, Deshmukh (Rat OPCs): ●
- hit in OL differentiation assay, Mei (Rat OPCs, Mouse OPCs): ●
- 0.1 µM (% DMSO) (expanded OPCs): 129.9 % DMSO
- 1 µM (% DMSO) (expanded OPCs): 169.5 % DMSO
- 10 µM (% DMSO) (expanded OPCs): 57.5 % DMSO

Compound: OCCOCCN1CCN(C2=Nc3ccccc3Sc3ccccc32)CC1 [Quetiapine]
- hit in OL differentiation assay, MRF-TMC [1]: ●
- hit in OL differentiation assay, Mei (Rat OPCs, Mouse OPCs): ●
- hit in OL differentiation assay, Najm (Mouse OPCs): ●

Compound: OCc1cc(C(O)CNCCCCCCOCCCCc2ccccc2)ccc1O (stereo not drawn) [Salmeterol, reference compound]
- activation at 0.4 µM [1, 14]: 55.3%
- activation at 2 µM [1, 10]: -32.4%
- EC50 ([1]; Rattus norvegicus): 400 nM
- hit in OL differentiation assay, MRF-TMC [1]: ●
- hit in OL differentiation assay, Deshmukh (Rat OPCs): ●
- viability at 0.1 µM (expanded OPCs; [11]): 115%
- viability at 1 µM (expanded OPCs; [12]): 108%
- viability at 10 µM (expanded OPCs; [13]): 9.3%

Compound: CC/C(=C(\c1ccccc1)c1ccc(OCCN(C)C)cc1)c1ccccc1 [Tamoxifen, reference compound]
- activation at 0.08 µM ([1]; Rattus norvegicus, test compound at 0.08 uM, NCC library screen, sheet "All OLga data", relative to quetiapine, read-out: 0.08 uM (% Quet)): 117%
- activation at 0.4 µM [1, 14]: -49.8%
- hit in OL differentiation assay, MRF-TMC [1]: ●
- hit in OL differentiation assay, Najm (Mouse OPCs): ●
- 0.1 µM (% DMSO) (expanded OPCs): 162.2 % DMSO
- 1 µM (% DMSO) (expanded OPCs): 55.1 % DMSO
- 10 µM (% DMSO) (expanded OPCs): 9.5 % DMSO

Compound: CN1CCN(CCCN2c3ccccc3Sc3ccc(C(F)(F)F)cc32)CC1 [Trifluoperazine, reference compound]
- activation at 0.4 µM ([1]; Rattus norvegicus, 0.4 uM test compound, relative to quetiapine, sheet "All OLga data", read-out: OL differentiation, 0.4 uM (% Quet)): 155%
- activation at 2 µM [1, 5]: -103%
- EC50 ([1]; Rattus norvegicus): 200 nM
- hit in OL differentiation assay, MRF-TMC [1]: ●
- hit in OL differentiation assay, Deshmukh (Rat OPCs): ●
- viability at 0.1 µM (expanded OPCs; [7]): 116%
- viability at 1 µM (expanded OPCs; [8]): 85.8%
- viability at 10 µM (expanded OPCs; [9]): 11.3%

Compound: CC(C)(C)NCC(O)c1ccc(O)c(CO)c1 (stereo not drawn) [albuterol, reference compound]
- promotion of OL differentiation (in words) [1]: not a hit in our screen
- activation at 2 µM [1, 5]: -6%
- activation at 10 µM [1, 6]: 18.6%
- clinical outcomes [3]: improved clinical outcomes

Compound: C[C@]12CC[C@@H]3c4ccc(O)cc4CC[C@H]3[C@@H]1C[C@@H](O)[C@@H]2O [estriol]
- lesion numbers and volumes [4]: reducing the lesion numbers and volumes

Compound: O=C(O[C@H]1CN2CCC1CC2)N1CCc2ccccc2[C@@H]1c1ccccc1 [solifenacin]
- oligodendrocyte differentiation of transplanted hOPCs (transplanted hOPCs): promoted oligodendrocyte differentiation of transplanted hOPCs
